Converted amounts (≈) assume the structure as drawn.
Tests used:
Type in all cases: functional
Settings in all cases: time 7-10 day
[1] = system: Mycobacterium tuberculosis; assay: Antitubercular activity against INH/RIF-resistant Mycobacterium tuberculosis clinical isolate M6 assessed as inhibition of bacterial growth incubated for 7 to 10 days by Alamar Blue staining based analysis
[2] = system: Mycobacterium tuberculosis; assay: Antitubercular activity against INH/RIF-resistant Mycobacterium tuberculosis clinical isolate M7 assessed as inhibition of bacterial growth incubated for 7 to 10 days by Alamar Blue staining based analysis
[3] = system: Mycobacterium tuberculosis; assay: Antitubercular activity against INH/RIF-resistant Mycobacterium tuberculosis clinical isolate M15 assessed as inhibition of bacterial growth incubated for 7 to 10 days by Alamar Blue staining based analysis
[4] = system: Mycobacterium tuberculosis; assay: Antitubercular activity against INH/RIF-resistant Mycobacterium tuberculosis clinical isolate M34 assessed as inhibition of bacterial growth incubated for 7 to 10 days by Alamar Blue staining based analysis

SMILES | MIC [1] [µg/mL] | MIC [2] [µg/mL] | MIC [3] [µg/mL] | MIC [4] [µg/mL]
NNC(=O)c1ccncc1 [ISONIAZID] | 8 (≈ 58.3 µM) | 8 (≈ 58.3 µM) | 4 (≈ 29.2 µM) | 8 (≈ 58.3 µM)
C[C@H]1c2c[nH]c3cccc(c23)S[C@H]1C(=O)O [CHUANGXINMYCIN] | 0.78 (≈ 3.34 µM) | 0.78 (≈ 3.34 µM) | 1.56 (≈ 6.69 µM) | 3.12 (≈ 13.4 µM)
CC1(C)c2c[nH]c3cccc(c23)S[C@H]1C(=O)O | 12.5 (≈ 50.5 µM) | 25 (≈ 101 µM) | 12.5 (≈ 50.5 µM) | 25 (≈ 101 µM)
CO[C@H]1/C=C/O[C@@]2(C)Oc3c(C)c(O)c4c(O)c(c(/C=N/N5CCN(C)CC5)c(O)c4c3C2=O)NC(=O)/C(C)=C\C=C\[C@H](C)[C@H](O)[C@@H](C)[C@@H](O)[C@@H](C)[C@H](OC(C)=O)[C@@H]1C [RIFAMPIN] | 16 (≈ 19.4 µM) | 8 (≈ 9.72 µM) | > 64 | 16 (≈ 19.4 µM)
O=C(O)[C@H]1Cc2c[nH]c3cccc(c23)S1 | 0.78 (≈ 3.56 µM) | 0.78 (≈ 3.56 µM) | 0.78 (≈ 3.56 µM) | 0.78 (≈ 3.56 µM)
